Results: PubChem BioAssay (NCI)
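Five concentrations, 48 hours, 96-well plates. TGI: total growth inhibition.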

What was measured:
Assay in all cases: NCI-60 cell line screen, 48 h
[1] = tested on: HOP-18 NSCLC
[2] = tested on: OVCAR-5 ovarian
[3] = tested on: SK-MEL-28 melanoma
[4] = tested on: XF 498 CNS
[5] = tested on: HCC-2998 colon
[6] = tested on: K-562 leukemia
[7] = tested on: NCI-H226 lung
[8] = tested on: KM12 colon
[9] = tested on: CAKI-1 renal
[10] = tested on: UACC-62 melanoma
[11] = tested on: MOLT-4 leukemia
[12] = tested on: RPMI-8226 leukemia
[13] = tested on: A549 NSCLC
[14] = tested on: SK-MEL-5 melanoma
[15] = tested on: SF-295 CNS
[16] = tested on: OVCAR-3 ovarian
[17] = tested on: SK-OV-3 ovarian
[18] = tested on: LXFL 529 NSCLC
[19] = tested on: HOP-92 NSCLC
[20] = tested on: DMS 114 small cell lung
[21] = tested on: DLD-1 colon
[22] = tested on: DMS 273 small cell lung
[23] = tested on: COLO 205 colon
[24] = tested on: UO-31 renal
[25] = tested on: EKVX NSCLC
[26] = tested on: 786-0 renal
[27] = tested on: M14 melanoma
[28] = tested on: LOX IMVI melanoma
[29] = tested on: RXF 393 renal
[30] = tested on: HOP-62 NSCLC
[31] = tested on: SNB-75 CNS
[32] = tested on: HCT-116 colon
[33] = tested on: OVCAR-8 ovarian
[34] = tested on: OVCAR-4 ovarian
[35] = tested on: TK-10 renal
[36] = tested on: M19-MEL melanoma
[37] = tested on: MALME-3M melanoma
[38] = tested on: NCI-H23 lung
[39] = tested on: IGROV1 ovarian
[40] = tested on: CCRF-CEM leukemia
[41] = tested on: KM20L2 colon
[42] = tested on: SNB-19 CNS
[43] = tested on: SF-268 CNS
[44] = tested on: HCT-15 colon
[45] = tested on: A498 renal
[46] = tested on: SF-539 CNS
[47] = tested on: SW-620 colon
[48] = tested on: HT29 colon
[49] = tested on: SR leukemia
[50] = tested on: SK-MEL-2 melanoma
[51] = tested on: HL-60(TB) leukemia
[52] = tested on: NCI-H522 lung
[53] = tested on: SN12C renal
[54] = tested on: NCI-H460 lung
[55] = tested on: UACC-257 melanoma
[56] = tested on: U251 CNS
[57] = tested on: SNB-78 CNS
[58] = tested on: ACHN renal
[59] = tested on: RXF-631 renal

Work on COC(=N)/C(=C1\OC(N)=C(c2ccc(Cl)cc2)C1=O)c1ccc(Cl)cc1 yielded a TGI [1] greater than 100 µM, a TGI [2] greater than 100 µM and a TGI [3] greater than 100 µM. For the same compound, the TGI [4] was greater than 100 µM, the TGI [5] was greater than 100 µM and the TGI [6] was greater than 100 µM. The TGI [7] was greater than 100 µM, the TGI [8] was greater than 100 µM and the TGI [9] was greater than 100 µM. For the same compound, the TGI [10] was greater than 100 µM, the TGI [11] was greater than 100 µM and the TGI [12] was greater than 100 µM. The TGI [13] was greater than 100 µM, the TGI [14] was greater than 100 µM and the TGI [15] was greater than 100 µM. It also gave a TGI [16] greater than 100 µM, a TGI [17] greater than 100 µM and a TGI [18] greater than 100 µM. For the same compound, the TGI [19] was greater than 100 µM, the TGI [20] was greater than 100 µM and the TGI [21] was greater than 100 µM. The TGI [22] was greater than 100 µM, the TGI [23] was greater than 100 µM and the TGI [24] was greater than 100 µM. The TGI [25] was greater than 100 µM, the TGI [26] was greater than 100 µM and the TGI [27] was greater than 100 µM. The TGI [28] was greater than 100 µM, the TGI [29] was greater than 100 µM and the TGI [30] was greater than 100 µM. The TGI [31] was greater than 100 µM, the TGI [32] was greater than 100 µM and the TGI [33] was greater than 100 µM. The TGI [34] was greater than 100 µM, the TGI [35] was greater than 100 µM and the TGI [36] was greater than 100 µM. It also gave a TGI [37] greater than 100 µM, a TGI [38] greater than 100 µM and a TGI [39] greater than 100 µM. The TGI [40] was greater than 100 µM, the TGI [41] was greater than 100 µM and the TGI [42] was greater than 100 µM. The TGI [43] was greater than 100 µM, the TGI [44] was greater than 100 µM and the TGI [45] was greater than 100 µM. For the same compound, the TGI [46] was greater than 100 µM, the TGI [47] was greater than 100 µM and the TGI [48] was greater than 100 µM. It also gave a TGI [49] greater than 100 µM, a TGI [50] greater than 100 µM and a TGI [51] greater than 100 µM. For the same compound, the TGI [52] was greater than 100 µM, the TGI [53] was greater than 100 µM and the TGI [54] was greater than 100 µM. It also gave a TGI [55] greater than 100 µM, a TGI [56] greater than 100 µM and a TGI [57] greater than 100 µM. It also gave a TGI [58] greater than 100 µM.

CC1Oc2c(c(O)cc3oc(=O)cc(-c4ccccc4)c23)C(=O)C1C (stereo not drawn) was tested, and the TGI [1] was greater than 100 µM, the TGI [3] was greater than 100 µM and the TGI [4] was greater than 100 µM. It also gave a TGI [6] greater than 100 µM, a TGI [7] greater than 100 µM and a TGI [9] greater than 100 µM. The TGI [10] was greater than 100 µM, the TGI [11] was greater than 100 µM and the TGI [12] was greater than 100 µM. The TGI [14] was greater than 100 µM, the TGI [15] was greater than 100 µM and the TGI [16] was greater than 100 µM. The TGI [17] was greater than 100 µM, the TGI [18] was greater than 100 µM and the TGI [19] was greater than 100 µM. For the same compound, the TGI [21] was greater than 100 µM, the TGI [22] was greater than 100 µM and the TGI [23] was greater than 100 µM. The TGI [24] was greater than 100 µM, the TGI [25] was greater than 100 µM and the TGI [27] was greater than 100 µM. For the same compound, the TGI [28] was greater than 100 µM, the TGI [31] was greater than 100 µM and the TGI [33] was greater than 100 µM. For the same compound, the TGI [35] was greater than 100 µM, the TGI [59] was greater than 100 µM and the TGI [37] was greater than 100 µM. It also gave a TGI [38] greater than 100 µM, a TGI [39] greater than 100 µM and a TGI [40] greater than 100 µM. The TGI [41] was greater than 100 µM, the TGI [43] was greater than 100 µM and the TGI [44] was greater than 100 µM. It also gave a TGI [45] greater than 100 µM, a TGI [46] greater than 100 µM and a TGI [47] greater than 100 µM. It also gave a TGI [50] greater than 100 µM, a TGI [51] greater than 100 µM and a TGI [52] greater than 100 µM. It also gave a TGI [53] greater than 100 µM, a TGI [54] greater than 100 µM and a TGI [56] greater than 100 µM. For the same compound, the TGI [57] was greater than 100 µM and the TGI [58] was greater than 100 µM.

C[C@@H]1CC2(N=CCS2)[C@]2(O)O[C@@H]3C[C@@]4(C)[C@H](C[C@H]3O[C@@H]2O1)C[C@H]1O[C@]12[C@@H]4[C@H](O)C(=O)[C@]1(C)C(C3=CC(=O)OC3)CC[C@]21O (stereo partly drawn) gave a TGI [3] of 0.089 µM, a TGI [4] of 0.0336 µM and a TGI [5] of 0.0727 µM. For the same compound, the TGI [7] was 0.0746 µM, the TGI [9] was 0.0265 µM and the TGI [10] was 0.0511 µM. For the same compound, the TGI [12] was 0.0578 µM, the TGI [17] was 0.0778 µM and the TGI [18] was 0.0166 µM. It also gave a TGI [19] of 0.08 µM, a TGI [21] of 0.0216 µM and a TGI [22] of 0.0214 µM. The TGI [23] was 0.0828 µM, the TGI [24] was 0.0755 µM and the TGI [26] was 0.0179 µM. For the same compound, the TGI [27] was 0.0497 µM, the TGI [28] was 0.0239 µM and the TGI [30] was 0.0211 µM. It also gave a TGI [31] of 0.0984 µM, a TGI [32] of 0.0301 µM and a TGI [59] of 0.102 µM. The TGI [36] was 0.0784 µM, the TGI [37] was 0.0285 µM and the TGI [39] was 0.159 µM. It also gave a TGI [43] of 0.0146 µM, a TGI [45] of 0.0386 µM and a TGI [46] of 0.0122 µM. For the same compound, the TGI [49] was 0.015 µM, the TGI [50] was 0.0749 µM and the TGI [51] was 0.0353 µM. For the same compound, the TGI [53] was 0.0202 µM, the TGI [57] was 0.0495 µM and the TGI [58] was 0.0149 µM.

Work on COS(=O)CCOC(=O)c1ccccc1SSc1ccccc1C(=O)OCCS(=O)OC (stereo not drawn) yielded a TGI [1] greater than 100 µM, a TGI [2] greater than 100 µM and a TGI [3] greater than 100 µM. For the same compound, the TGI [4] was 62.8 µM, the TGI [6] was 69.6 µM and the TGI [8] was greater than 100 µM. It also gave a TGI [9] of 73.1 µM, a TGI [10] of 51.5 µM and a TGI [11] of 22.8 µM. The TGI [12] was 57.7 µM, the TGI [13] was greater than 100 µM and the TGI [14] was greater than 100 µM. The TGI [15] was greater than 100 µM, the TGI [16] was 54.5 µM and the TGI [17] was greater than 100 µM. It also gave a TGI [18] of 47.2 µM, a TGI [19] of 74.2 µM and a TGI [20] of 34.1 µM. It also gave a TGI [21] greater than 100 µM, a TGI [22] greater than 100 µM and a TGI [23] of 49.1 µM. The TGI [24] was 43.5 µM, the TGI [25] was greater than 100 µM and the TGI [26] was 38.2 µM. The TGI [27] was 57.8 µM, the TGI [28] was 61.6 µM and the TGI [29] was 28 µM. For the same compound, the TGI [30] was greater than 100 µM, the TGI [31] was 70.2 µM and the TGI [33] was 81.2 µM. For the same compound, the TGI [34] was 34.9 µM, the TGI [35] was greater than 100 µM and the TGI [36] was greater than 100 µM. The TGI [37] was 63.7 µM, the TGI [38] was 44.4 µM and the TGI [39] was greater than 100 µM. The TGI [40] was greater than 100 µM, the TGI [41] was greater than 100 µM and the TGI [42] was greater than 100 µM. It also gave a TGI [43] greater than 100 µM, a TGI [44] of 85.9 µM and a TGI [45] greater than 100 µM. For the same compound, the TGI [46] was 65.6 µM, the TGI [47] was 87.4 µM and the TGI [48] was 28.8 µM. It also gave a TGI [50] greater than 100 µM, a TGI [52] of 18.6 µM and a TGI [53] of 85.9 µM. For the same compound, the TGI [54] was greater than 100 µM, the TGI [55] was 38.8 µM and the TGI [56] was greater than 100 µM. The TGI [57] was greater than 100 µM and the TGI [58] was greater than 100 µM.
